Data published in patent EP1761537B1, “PYRROLO[2,1-C][1,4]BENZODIAZEPINE-NAPTHALIMIDE […] THROUGH […] AND PROCESS FOR PREPARATION THEREOF” (Council of Scientific and Industrial Research, priority 2004, dated 2006).

Tests used:
CT-DNA = test: DNA Thermal Denaturation Studies; format: binding; details: 1:5 molar ratio [PBD]/[DNA], CT-DNA 100 µM, ligand 20 µM, 10 mM sodium phosphate + 1 mM EDTA, pH 7.00
Experimental: For CT-DNA alone at pH 7.00 ± 0.01, Tm = 69.8 °C ± 0.01 (mean value from 10 separate determinations), all ΔTm values are ± 0.1 - 0.2 °C. For a 1:5 molar ratio of [PBD]/[DNA], where CT-DNA concentration = 100 µM and ligand concentration = 20 µM in aqueous sodium phosphate buffer [10 mM sodium phosphate + 1 mM EDTA, pH 7.00 ± 0.01].

HT-29 = test: In vitro cytotoxicity against human cancer cell lines (sulforhodamine B); format: cell-based; details: HT-29 (colon), 48 hours, read-out: percentage growth inhibition; for inhibition at 100 µM: 10^-4 mol/L; for inhibition at 10 µM: 10^-5 mol/L; for inhibition at 1 µM: 10^-6 mol/L
Experimental: (§1) In vitro cytotoxicity against human cancer cell lines: The human cancer cell lines procured from National Cancer Institute, Frederick, U.S.A or National Center for Cell Science; Pune, India. were used in present study. Cells were grown in tissue culture flasks in complete growth medium (RPMI-1640 medium with 2 mM glutamine, 100 µg/ml streptomycin, pH 7.4, sterilized by filtration and supplemented with 10% fetal calf serum and 100 units/ml penicillin before use) at 37°C in an atmosphere of 5% CO2 and 90% relative humidity in a carbon dioxide incubator. The cells at subconfluent stage were harvested from the flask by treatment with trypsin (0.5% in PBS containing 0.02% EDTA) for determination of cytotoxicity. Cells with viability of more than 98% as determined by trypan blue exclusion were used for assay. The cell suspension of the required cell density were prepared in complete growth medium with gentamycin (50µg/ml) for determination of cytotoxicity.
(§2) A stock solutions of (2 X 10^-2 M) of test material were prepared in DMSO . The stock solutions were serially diluted with complete growth medium containing 50µg/ml of gentamycin to obtain working test solutions of required concentrations.
(§3) In vitro cytotoxicity against human cancer cell lines was determined (Monks, A., Scudiero, D., Skehan, P, Shoemaker R, Paull, K., Vistica, D., Hose, C., Langley, J., Cronise, P., Vaigro-Wolff, A., Gray-Goodrich, M.; Campbell,H., Mayo, J and Boyd M. J. Natl. Cancer Inst.,1991,83, 757-766) using 96-well tissue culture plates. The 100 µl of cell suspension was added to each well of the 96-well tissue culture plate. The cells were incubated for 24 hours. Test materials in complete growth medium (100µl) were added after 24 hours incubation to the wells containing cell suspension. The plates were further incubated for 48 hours (at 37°C in an atmosphere of 5% and 90% relative humidity in a carbon dioxide incubator) after addition of test material and then the cell growth was stopped by gently layering trichloroacetic acid (TCA, 50µl, 50%) on top of the medium in all the wells. The plates were incubated at 4°C for one hour to fix the cells attached to the bottom of the wells. The liquid of all the wells was gently pipetted out and discarded. The plates were washed five times with distilled water to remove TCA, growth medium low molecular weight metabolites, serum proteins etc and air-dried. Cell growth was measured by staining with sulforhodamine B dye (Skehan et al., 1990). The adsorbed dye was dissolved in Tris-Buffer ([…], 0.01M, pH 10.4) and plates were gently stirred for 5 minutes on a mechanical stirrer. The optical density was recorded on ELISA reader at 540 nm.
(§4) The cell growth was calculated by subtracting mean OD value of respective blank from the mean OD value of experimental set. Percent growth in presence of test material was calculated considering the growth in absence of any test material as 100% and in turn percent growth inhibition in presence of test material will be calculated.

HOP-62 = test: as above; format: cell-based; details: HOP-62 (lung), 48 hours, read-out: percentage growth inhibition; for inhibition at 10 µM: 10^-5 mol/L; for inhibition at 1 µM: 10^-6 mol/L
Experimental: as §1, §2, §3, §4

A-549 = test: as above; format: cell-based; details: A549, A-549 (lung), 48 hours, read-out: percentage growth inhibition; for inhibition at 100 µM: 10^-4 mol/L
Experimental: as §1, §2, §3, §4

SiHa = test: as above; format: cell-based; details: SiHa (cervix), 48 hours, read-out: percentage growth inhibition; for inhibition at 10 µM: 10^-5 mol/L; for inhibition at 1 µM: 10^-6 mol/L; for inhibition at 100 µM: 10^-4 mol/L
Experimental: as §1, §2, §3, §4

HCT-15 = test: as above; format: cell-based; details: HCT-15 (colon), 48 hours, read-out: percentage growth inhibition; for inhibition at 10 µM: 10^-5 mol/L; for inhibition at 1 µM: 10^-6 mol/L
Experimental: as §1, §2, §3, §4

| Compound | Induced […]Tm °C after incubation at 37 °C (CT-DNA; 0 h incubation at 37 °C) | Induced […]Tm °C after incubation at 37 °C (CT-DNA; 18 h incubation at 37 °C) | inhibition at 100 µM (HT-29) | inhibition at 10 µM (HT-29) | inhibition at 1 µM (HT-29) | inhibition at 10 µM (HOP-62) | inhibition at 1 µM (HOP-62) | inhibition at 100 µM (A-549) | inhibition at 10 µM (SiHa) | inhibition at 1 µM (SiHa) | inhibition at 10 µM (HCT-15) | inhibition at 1 µM (HCT-15) | inhibition at 100 µM (SiHa) | inhibition at 100 µM (HOP-62; 10^-4 mol/L) | inhibition at 10 µM (A-549; 10^-5 mol/L) | inhibition at 1 µM (A-549; 10^-6 mol/L) |
| --- | --- | --- | --- | --- | --- | --- | --- | --- | --- | --- | --- | --- | --- | --- | --- | --- |
| COc1cc2c(cc1O)N=CC1CCCN1C2=O (centres unmarked) [DC-81, reference compound] | 0.3 °C | 0.7 °C |  |  |  |  |  |  |  |  |  |  |  |  |  |  |
| COc1cc2c(cc1OCCN1CCN(CCN3C(=O)c4cccc5cccc(c45)C3=O)CC1)N=C[C@@H]1CCCN1C2=O [VIIIa, 7-Methoxy-8-{2-[4-[2-(1,3-dioxo-benz[de]isoquinolin-2-yl)ethyl]piperazin-1=yl]ethyl}-oxy-(11aS)-1,2,3,11a tetrahydro-5H-pyrrolo [2,1-c][1,4]benzodiazepin-5-one] | 21.9 °C | 22.7 °C |  |  |  |  |  |  |  |  |  |  |  |  |  |  |
| COc1cc2c(cc1OCCCN1CCN(CCN3C(=O)c4cccc5cccc(c45)C3=O)CC1)N=C[C@@H]1CCCN1C2=O [VIIIb, 7-Methoxy-8-{3-[4-[2-(1,3-dioxo-benz[de]isoquinolin-2-yl)ethyl]piperazin-1-yl]propyl}-oxy-(11aS)-1,2,3,11a tetrahydro-5H-pyrrolo [2,1-c][1,4]benzodiazepin-5-one] | 25.8 °C | 26.7 °C | 88% | 85% | 91% | 86% | 72% | 88% | 44% | 54% | 59% | 58% |  |  |  |  |
| COc1cc2c(cc1OCCCCN1CCN(CCN3C(=O)c4cccc5cccc(c45)C3=O)CC1)N=C[C@@H]1CCCN1C2=O [VIIIc, 7-Methoxy-8-{4-[4-[2-(1,3-dioxo-benz[de]isoquinolin-2-yl)ethyl]piperazin-1-yl]butyl}-oxy-(11aS)-1,2,3,11a tetrahydro-5H-pyrrolo [2,1-c][1,4]benzodiazepin-5-one] | 23.4 °C | 24.2 °C | 94% | 86% | 80% | 93% | 86% | 95% | 39% |  | 69% | 60% | 56% |  |  |  |
| COc1cc2c(cc1OCCCN1CCN(CCCN3C(=O)c4cccc5cccc(c45)C3=O)CC1)N=C[C@@H]1CCCN1C2=O [VIIId, 7-Methoxy-8-{3-[4-[3-(1,3-dioxo-benz[de]isoquinolin-2-yl)propyl]piperazin-1-yl]propyl}-oxy-(11aS)-1,2,3,11a tetrahydro-5H-pyrrolo [2,1-c][1,4]benzodiazepin-5-one] | 13.1 °C | 14.3 °C | 95% | 62% | 63% |  |  | 95% | 65% | 31% |  |  | 85% | 78% | 30% | 51% |
| COc1cc2c(cc1OCCCCN1CCN(CCCCN3C(=O)c4cccc5cccc(c45)C3=O)CC1)N=C[C@@H]1CCCN1C2=O [VIIIe, 7-Methoxy-8-{4-[4-[4-(1,3-dioxo-benz[de]isoquinolin-2-yl)butyl]piperazin-1-yl]butyl}-oxy-(11aS)-1,2,3,11a tetrahydro-5H-pyrrolo [2,1-c][1,4]benzodiazepin-5-one] | 20.9 °C | 21.7 °C | 92% | 78% | 67% | 93% | 80% | 93% | 40% | 44% | 62% | 59% | 42% |  |  |  |
